Data on three compounds can be found in paper PMC10004634 (PLOS ONE, 2023).

Test in all cases: biochemical
What all share (parameters): KINOMEscan scanMAX competition binding, DNA-tagged kinases, qPCR read-out, percent control at 300 nM
(Real-time PCR tracks product formation cycle by cycle.)

Test [1] has as its target EGFR(G719C) (Homo sapiens, UniProt P00533, G719C). The following applies: read-out: Percent control / Tirabrutinib.
In test [2] the target is TLK2 (Homo sapiens, UniProt Q86UE8). The following applies: read-out: Percent control / Tirabrutinib.
For test [3], the target named is SIK2 (Homo sapiens, UniProt Q9H0K1). The following applies: read-out: Percent control / Acalabrutinib.
For test [4], the target named is CDK5 (Homo sapiens, UniProt Q00535). The note with it: read-out: Percent control / Zanubrutinib.
The target in test [5] is HIPK2 (Homo sapiens, UniProt Q9H2X6). The note with it: read-out: Percent control / Zanubrutinib.
For test [6], the target named is PIK3CA(E545A) (Homo sapiens, UniProt P42336, E545A). The note with it: read-out: Percent control / Zanubrutinib.
For test [7], the target named is PIK3CB (Homo sapiens, UniProt P42338). The following applies: read-out: Percent control / Zanubrutinib.
Test [8] has as its target TGFBR2 (Homo sapiens, UniProt P37173). The note with it: read-out: Percent control / Zanubrutinib.
The target of test [9] is ZAP70 (Homo sapiens, UniProt P43403). The note with it: read-out: Percent control / Zanubrutinib.

Chain of TLK2 (Q86UE8 whole entry): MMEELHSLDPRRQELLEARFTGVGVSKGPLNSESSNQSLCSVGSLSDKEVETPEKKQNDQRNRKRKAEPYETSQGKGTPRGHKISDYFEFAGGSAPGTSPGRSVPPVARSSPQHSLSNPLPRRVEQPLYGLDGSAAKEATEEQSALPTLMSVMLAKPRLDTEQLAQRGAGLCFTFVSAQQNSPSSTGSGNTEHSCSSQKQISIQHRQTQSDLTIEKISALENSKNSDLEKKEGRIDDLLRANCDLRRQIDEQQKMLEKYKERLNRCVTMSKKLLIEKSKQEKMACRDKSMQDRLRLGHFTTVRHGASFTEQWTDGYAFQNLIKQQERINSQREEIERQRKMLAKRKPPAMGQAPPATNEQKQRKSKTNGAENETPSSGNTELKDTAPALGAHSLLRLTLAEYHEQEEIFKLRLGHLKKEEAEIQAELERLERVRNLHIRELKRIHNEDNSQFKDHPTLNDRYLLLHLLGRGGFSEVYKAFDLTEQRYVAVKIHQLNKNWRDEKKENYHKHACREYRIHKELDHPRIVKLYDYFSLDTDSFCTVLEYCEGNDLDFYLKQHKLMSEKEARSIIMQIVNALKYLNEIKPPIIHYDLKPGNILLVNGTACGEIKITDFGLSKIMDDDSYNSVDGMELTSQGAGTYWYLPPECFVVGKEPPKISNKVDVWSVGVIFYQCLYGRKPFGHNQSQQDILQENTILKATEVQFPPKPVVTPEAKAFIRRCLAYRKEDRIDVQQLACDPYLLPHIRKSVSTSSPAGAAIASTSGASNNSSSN
Chain of PIK3CA(E545A) (P42336 whole entry E545A): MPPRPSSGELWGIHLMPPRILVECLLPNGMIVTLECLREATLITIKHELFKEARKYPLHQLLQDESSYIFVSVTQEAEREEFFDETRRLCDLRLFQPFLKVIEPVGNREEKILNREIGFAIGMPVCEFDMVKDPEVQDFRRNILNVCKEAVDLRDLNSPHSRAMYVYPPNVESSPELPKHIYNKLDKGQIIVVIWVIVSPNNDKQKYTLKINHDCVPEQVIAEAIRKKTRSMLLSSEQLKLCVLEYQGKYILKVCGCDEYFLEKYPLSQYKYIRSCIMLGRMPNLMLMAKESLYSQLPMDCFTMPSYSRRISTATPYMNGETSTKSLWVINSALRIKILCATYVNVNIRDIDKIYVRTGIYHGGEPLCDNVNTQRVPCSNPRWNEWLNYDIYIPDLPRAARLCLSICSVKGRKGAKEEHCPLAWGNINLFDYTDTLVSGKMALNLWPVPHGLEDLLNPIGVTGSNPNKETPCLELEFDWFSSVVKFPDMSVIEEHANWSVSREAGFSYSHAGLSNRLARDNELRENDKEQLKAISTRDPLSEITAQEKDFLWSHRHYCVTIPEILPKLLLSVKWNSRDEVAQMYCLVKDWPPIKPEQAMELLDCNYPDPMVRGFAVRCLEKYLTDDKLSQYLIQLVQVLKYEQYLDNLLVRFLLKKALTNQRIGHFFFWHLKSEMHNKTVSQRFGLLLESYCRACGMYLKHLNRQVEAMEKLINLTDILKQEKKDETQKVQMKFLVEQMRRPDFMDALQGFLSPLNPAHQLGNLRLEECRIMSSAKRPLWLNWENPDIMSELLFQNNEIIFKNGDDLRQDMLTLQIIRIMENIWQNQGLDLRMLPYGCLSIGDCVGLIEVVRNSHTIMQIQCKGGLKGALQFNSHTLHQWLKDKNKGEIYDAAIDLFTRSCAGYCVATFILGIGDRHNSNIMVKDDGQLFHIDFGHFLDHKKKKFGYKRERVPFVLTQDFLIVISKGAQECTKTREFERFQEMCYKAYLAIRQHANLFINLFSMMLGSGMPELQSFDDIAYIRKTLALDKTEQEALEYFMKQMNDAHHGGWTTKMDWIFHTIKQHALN
Chain of TGFBR2 (P37173 whole entry): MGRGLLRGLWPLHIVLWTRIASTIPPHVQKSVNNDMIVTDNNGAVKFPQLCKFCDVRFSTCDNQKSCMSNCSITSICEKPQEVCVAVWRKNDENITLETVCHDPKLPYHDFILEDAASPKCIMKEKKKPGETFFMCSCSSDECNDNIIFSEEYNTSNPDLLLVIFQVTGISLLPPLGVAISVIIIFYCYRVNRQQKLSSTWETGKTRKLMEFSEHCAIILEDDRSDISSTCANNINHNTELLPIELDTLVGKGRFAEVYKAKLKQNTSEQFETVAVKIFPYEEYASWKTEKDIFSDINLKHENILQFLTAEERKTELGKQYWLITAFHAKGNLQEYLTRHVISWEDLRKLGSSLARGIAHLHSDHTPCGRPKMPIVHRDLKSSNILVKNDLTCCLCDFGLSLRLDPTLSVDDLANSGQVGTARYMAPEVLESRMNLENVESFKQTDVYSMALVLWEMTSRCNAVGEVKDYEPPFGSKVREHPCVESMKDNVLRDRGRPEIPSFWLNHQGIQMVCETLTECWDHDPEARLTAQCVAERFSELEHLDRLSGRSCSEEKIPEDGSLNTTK
Chain of HIPK2 (Q9H2X6 whole entry): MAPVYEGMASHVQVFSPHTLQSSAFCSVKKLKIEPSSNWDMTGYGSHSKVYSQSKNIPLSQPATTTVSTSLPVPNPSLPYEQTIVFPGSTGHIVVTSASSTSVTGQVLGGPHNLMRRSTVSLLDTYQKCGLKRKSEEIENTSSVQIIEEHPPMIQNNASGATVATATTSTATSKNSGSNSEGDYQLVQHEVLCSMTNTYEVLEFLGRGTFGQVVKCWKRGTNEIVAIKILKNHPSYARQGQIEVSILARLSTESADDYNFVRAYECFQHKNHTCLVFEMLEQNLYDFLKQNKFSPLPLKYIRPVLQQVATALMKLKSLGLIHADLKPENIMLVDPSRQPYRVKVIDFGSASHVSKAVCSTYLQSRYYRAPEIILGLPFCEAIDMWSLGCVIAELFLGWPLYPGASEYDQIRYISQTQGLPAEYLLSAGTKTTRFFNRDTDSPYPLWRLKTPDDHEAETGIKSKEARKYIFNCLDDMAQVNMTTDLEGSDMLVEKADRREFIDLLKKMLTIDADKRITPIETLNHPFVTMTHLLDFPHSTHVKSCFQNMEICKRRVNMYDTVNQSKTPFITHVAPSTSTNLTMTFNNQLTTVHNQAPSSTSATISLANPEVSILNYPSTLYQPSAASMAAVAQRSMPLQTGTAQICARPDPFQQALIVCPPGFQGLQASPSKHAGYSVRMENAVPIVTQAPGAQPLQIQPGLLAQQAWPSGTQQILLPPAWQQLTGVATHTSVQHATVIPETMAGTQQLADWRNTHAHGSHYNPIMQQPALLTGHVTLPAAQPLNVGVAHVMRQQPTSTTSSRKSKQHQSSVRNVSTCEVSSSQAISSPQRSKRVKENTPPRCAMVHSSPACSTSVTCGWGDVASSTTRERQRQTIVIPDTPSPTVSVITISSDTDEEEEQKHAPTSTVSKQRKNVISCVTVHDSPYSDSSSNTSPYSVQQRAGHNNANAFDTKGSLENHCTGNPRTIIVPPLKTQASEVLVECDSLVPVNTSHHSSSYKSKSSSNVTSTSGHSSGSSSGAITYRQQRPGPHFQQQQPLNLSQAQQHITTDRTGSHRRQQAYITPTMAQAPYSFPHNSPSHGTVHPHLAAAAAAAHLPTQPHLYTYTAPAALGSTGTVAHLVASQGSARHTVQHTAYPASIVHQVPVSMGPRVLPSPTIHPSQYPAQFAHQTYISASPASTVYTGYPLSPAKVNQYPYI
Chain of CDK5 (Q00535 whole entry): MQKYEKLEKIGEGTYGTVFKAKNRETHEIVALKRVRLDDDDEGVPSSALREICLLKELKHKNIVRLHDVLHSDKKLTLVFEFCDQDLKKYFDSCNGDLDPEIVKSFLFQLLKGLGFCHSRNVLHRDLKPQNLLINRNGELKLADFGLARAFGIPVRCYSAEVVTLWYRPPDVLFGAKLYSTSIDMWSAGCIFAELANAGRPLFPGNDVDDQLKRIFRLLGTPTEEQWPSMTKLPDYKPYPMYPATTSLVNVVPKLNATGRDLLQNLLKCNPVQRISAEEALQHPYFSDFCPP
Chain of SIK2 (Q9H0K1 whole entry): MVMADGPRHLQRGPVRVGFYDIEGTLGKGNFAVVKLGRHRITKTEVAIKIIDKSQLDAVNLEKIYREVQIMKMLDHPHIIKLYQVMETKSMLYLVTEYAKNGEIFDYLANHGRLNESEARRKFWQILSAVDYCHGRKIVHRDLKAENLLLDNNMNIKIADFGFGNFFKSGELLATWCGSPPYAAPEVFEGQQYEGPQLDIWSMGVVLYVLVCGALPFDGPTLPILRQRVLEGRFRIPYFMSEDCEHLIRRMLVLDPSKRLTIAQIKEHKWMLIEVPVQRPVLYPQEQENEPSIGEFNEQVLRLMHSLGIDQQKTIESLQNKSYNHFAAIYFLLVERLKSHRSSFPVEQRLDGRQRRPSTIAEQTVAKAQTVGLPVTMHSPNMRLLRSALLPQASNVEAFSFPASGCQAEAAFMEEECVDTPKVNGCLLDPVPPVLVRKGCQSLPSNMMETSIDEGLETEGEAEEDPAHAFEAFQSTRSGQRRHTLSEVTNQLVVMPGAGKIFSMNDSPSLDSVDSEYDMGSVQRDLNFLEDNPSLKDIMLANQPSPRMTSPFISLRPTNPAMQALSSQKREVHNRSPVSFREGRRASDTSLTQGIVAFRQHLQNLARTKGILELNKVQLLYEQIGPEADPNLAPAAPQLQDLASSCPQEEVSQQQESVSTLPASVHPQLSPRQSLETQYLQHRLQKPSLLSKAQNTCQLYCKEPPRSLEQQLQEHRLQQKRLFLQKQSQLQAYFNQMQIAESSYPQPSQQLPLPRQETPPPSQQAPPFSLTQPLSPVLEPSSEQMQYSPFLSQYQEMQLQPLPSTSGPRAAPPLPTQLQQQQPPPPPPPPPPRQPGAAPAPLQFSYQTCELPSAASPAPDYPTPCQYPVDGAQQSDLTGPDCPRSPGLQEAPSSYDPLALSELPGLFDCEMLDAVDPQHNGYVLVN

With `CC#CC(=O)N1CC[C@@H](n2c(=O)n(-c3ccc(Oc4ccccc4)cc3)c3c(N)ncnc32)C1` [Tirabrutinib], the values for the remaining binding at 0.3 µM in test [1] and in [2] were 54% and 90%, respectively.

`CC#CC(=O)N1CCC[C@H]1c1nc(-c2ccc(C(=O)Nc3ccccn3)cc2)c2c(N)nccn12` [Acalabrutinib]: the remaining binding at 0.3 µM in test [3] was 90%.

Consider `C=CC(=O)N1CCC([C@@H]2CCNc3c(C(N)=O)c(-c4ccc(Oc5ccccc5)cc4)nn32)CC1` [Zanubrutinib], for which the remaining binding at 0.3 µM in test [4] worked out at 98%; in test [5], 87%; in [6], 59%; in test [7] it was 98%; in test [8], 90%; in test [9] it was 68%.
